This note sets out measurements from patent US20240081377A1, “USING ORGANOIDS AND/OR SPHEROIDS TO CULTIVATE MEAT” (Orbillion Bio, Inc., priority 2020, published 2024).

The test system of one test is A549 spheroids. The test can be described thus: On-chip drug toxicity screening of A549 spheroids (dye exclusion assay, Hoechst / ethidium homodimer-1). Format: cell-based, human. As to conditions: A549 spheroids of all sizes (300-1000 μm), different concentrations, 24 hours.
The next test deals with spheroids. In words: Spheroid expansion (spheroid diameter) following recombinant growth factor treatment. Format: cell-based. Particulars: wells 300 μm in diameter, 3 days after treatment. An excerpt:
FIG. 20A to FIG. 20B illustrates spheroid diameter of cells cultured in wells measuring 900 μm in diameter for 12 days following growth factor treatment with fibroblast growth factor (FGF), hepatocyte growth factor (HGF), and insulin-like growth factor (IGF). More specifically, FIG. 20A depicts spheroid diameter in and FIG. 20B depicts spheroid diameter as a percentage of size increase as compared to control.
FIG. 21A to FIG. 21B depicts spheroid diameter of cells cultured in wells measuring 300 μm in diameter for 12 days following growth factor treatment with fibroblast growth factor (FGF), hepatocyte growth factor (HGF), and insulin-like growth factor (IGF). More specifically, FIG. 21A depicts spheroid diameter in and FIG. 21B depicts spheroid diameter as a percentage of size increase as compared to control.

Protocol for A549 spheroids: A549 cells were seeded at a concentration of 1×10^6 cells per ml and cultivated for three days under standard cell culture conditions under bi-directional flow (e.g. using a rocking device). Stock solutions of 10 mM cisplatin (Sigma-Aldrich, Austria) in DMSO and 10 mM doxorubicin (Sigma-Aldrich, Austria) in PBS were prepared. Doxorubicin and cisplatin were dissolved in cell culture medium to yield concentrations of 0.5, 1, 5, 10, 25, 50 and 500 μM for the treatment of A549 spheroids. Cell culture medium within the channels of the devices was replaced with drug containing medium and incubated for 24 hours prior to cell death analyses. One channel on a separate device was used as an untreated control. […] Raw fluorescence signals were processed and dose-response curves were generated by Sigmoidal-4PL non-linear regression analysis.
Live A549 cell spheroids of different sizes (300 μm, 500 μm, 700 μm, 900 μm, 1000 μm in diameter) were stained with Hoechst; blue and Ethidium homodimer-1; red and treated with different concentrations (100 μM, 10 μM and 1 μM) of CIS, DOX, and CIS:DOX to screen drug toxicity for up to 24 hours following drug treatment. […] Viability of live human A549 cell spheroids of different sizes (measured as a % of the untreated control) was calculated as a function of chemotherapy drug treatment concentration (CIS, DOX, and CIS:DOX). […]

As for `COc1cccc2c1C(=O)c1c(O)c3c(c(O)c1C2=O)C[C@@](O)(C(=O)CO)C[C@@H]3O[C@H]1C[C@H](N)[C@H](O)[C@H](C)O1` [DOX, Doxorubicin], in the test with A549 spheroids, the “viability of A549 cell spheroids (measured as a % of the untreated control)” value is “decreased sharply”.
Take “HGF: recombinant hepatocyte growth factor”: the “spheroid diameter, size increase as compared to control” value in the test on spheroids was “largest difference”.
